Experiments:
[1] = Pharmacokinetic evaluation of aliskiren and atorvastatin in rats (animal test); assay type: in vivo; conditions: SD rats, oral, once a day for 8 days
Experimental: As an experiment to confirm the effects of the invention, an animal test was carried out as follows, in order to confirm the effects of conventional combined administration and inventive chronotherapeutic administration of pharmacologically active ingredients, aliskiren as a renin inhibitor and atorvastatin as an HMG-CoA reductase inhibitor.
1) Title: Pharmacokinetic evaluation of aliskiren and atorvastatin in a hypertensive animal model.
2) Object: It is intended to verify through the chronotherapeutic administration-based pharmacokinetic changes the fact that the problem of pharmacokinetic interaction between different drugs upon simultaneous administration of drug groups metabolized by the same hepatic enzyme can be solved by controlled release of the drugs.
1. Test group: Animals were grouped into two groups (n=6), a group receiving simultaneous administration of aliskiren/atorvastatin, and a group receiving chronotherapeutic administration of aliskiren/atorvastatin.
2. Administration route: Forced intragastric administration via an oral sonde.
3. […]
5. Administration volume: 5 mL/kg based on the body weight of animals measured on the day of administration. […]

[2] = cited from earlier work
[3] = concurrent administration of aliskiren and atorvastatin; cited from earlier work
cytochrome P450 3A4 = cytochrome P450 3A4 (Homo sapiens, UniProt P08684); conditions: in vitro experiments; cited from earlier work
Sequence of cytochrome P450 3A4 (P08684 whole entry, species assumed): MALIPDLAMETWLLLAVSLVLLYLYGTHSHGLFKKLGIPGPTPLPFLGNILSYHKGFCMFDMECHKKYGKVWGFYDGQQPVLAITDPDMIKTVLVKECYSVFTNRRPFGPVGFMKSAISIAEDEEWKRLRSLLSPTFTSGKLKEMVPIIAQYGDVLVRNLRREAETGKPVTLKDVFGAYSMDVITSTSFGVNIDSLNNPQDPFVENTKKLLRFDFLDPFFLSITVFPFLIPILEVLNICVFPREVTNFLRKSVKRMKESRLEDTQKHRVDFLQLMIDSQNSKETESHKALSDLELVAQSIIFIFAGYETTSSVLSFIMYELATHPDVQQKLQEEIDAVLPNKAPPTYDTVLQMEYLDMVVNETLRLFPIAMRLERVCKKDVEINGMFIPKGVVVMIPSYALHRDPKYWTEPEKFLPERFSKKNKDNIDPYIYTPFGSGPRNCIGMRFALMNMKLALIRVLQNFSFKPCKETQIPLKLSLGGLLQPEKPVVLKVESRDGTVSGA

[4] = system: hepatic enzyme cytochrome P450; conditions: cited from earlier work

Which “blood level of aliskiren compared to the single administration group” value ([1]; aliskiren 300 mg/kg and atorvastatin 80 mg/kg simultaneously) does the source give for `COCCCOc1cc(C[C@@H](C[C@H](N)[C@@H](O)C[C@H](C(=O)NCC(C)(C)C(N)=O)C(C)C)C(C)C)ccc1OC` [aliskiren, 2(S),4(S),5(S),7(S)-N-(3-amino-2,2-dimethyl-3-oxopropyl)-2,7-di(1-methylethyl)-4-hydroxy-5-amino-8-[4-methoxy-3-(3-methoxy-propoxy)phenyl]-octanamide] here?
Its value is “significant increase”.

What about the “blood aliskiren level compared to the single administration group” value ([1]; aliskiren 300 mg/kg given 4 hours after atorvastatin 80 mg/kg (chronotherapeutic)) of the same molecule?
Its value is “equivalent to that of the single administration group”.

What about the bioavailability ([2]; in vivo) of the same molecule?
The bioavailability was at most 2%.

And the half-life ([2]; in vivo)?
The half-life was 24 h.

What about the decrease in bioavailability ([2]; when high-fat diet is ingested) of the same molecule?
Its decrease in bioavailability is 71%.

What about the “decrease in peak blood level” value ([2]; when high-fat diet is ingested) of the same molecule?
Its value is 85%.

What about the “increase in blood aliskiren level” value [3] of the same molecule?
The value was 50%.

And the “metabolism by cytochrome P450 3A4” value (cytochrome P450 3A4)?
The value was “metabolized by cytochrome P450 3A4”.

What about the “inhibition or induction of hepatic enzyme cytochrome P450” value [4] of the same molecule?
The value was “does not inhibit or induce”.

Which results are given for `COc1ccc(C[C@H](NC(=O)CC(C)(C)N)C(=O)N[C@@H](Cc2cnc[nH]2)C(=O)N[C@@H](CC2CCCCC2)[C@@H](O)[C@@H](O)CC(C)C)cc1` [enalkiren]?
bioavailability (in words) ([2]; in vivo): low; half-life (in words) ([2]; in vivo): short

With `CC(C)(C)S(=O)(=O)C[C@@H](Cc1ccccc1)C(=O)N[C@@H](Cc1cnc[nH]1)C(=O)N[C@@H](CC1CCCCC1)[C@@H](O)[C@@H](O)C1CC1` [remikiren] as the molecule, how does the “bioavailability (in words)” value ([2]; in vivo) read?
The value was “low”.

What about the “half-life (in words)” value ([2]; in vivo) of the same molecule?
Its value is “short”.

What does the source list for `CC(C)C[C@H](O)[C@H](O)[C@H](CC1CCCCC1)NC(=O)[C@H](Cc1cscn1)NC(=O)[C@H](Cc1ccccc1)CS(=O)(=O)N1CCN(C)CC1` [zankiren]?
bioavailability (in words) ([2]; in vivo): low; half-life (in words) ([2]; in vivo): short

— patent US20110111021A1, “PHARMACEUTICAL PREPARATION” (HANALL BIOPHARMA CO., LTD., priority 2008, published 2011)
